The subject of this test is neonatal rat ventricular myocytes (NRVMs). The test can be described thus: Myocyte proliferation assay (EdU) in neonatal rat ventricular myocytes. It is filed as cell-based. The settings on record: Rattus norvegicus, Ventricular myocyte, growth relative to blank myocyte growth without compound added; for activation at 1 µM: 1 uM compound; for activation at 3 µM: 3 uM compound; for activation at 10 µM: 10 uM compound. On the procedure: 1. Isolation of and Culture Neonatal Rat Ventricular Myocytes (NRVMs)
Ventricles from neonatal rats were separated from the atria, cut into small pieces (about 2×2 mm^2) and then dissociated in Ca^2+-free HBSS containing 0.125 mg ml-1 trypsin (Gibco), 10 μg ml-1 DNase II (Sigma) and 0.1 mg ml-1 collagenase type IV (Sigma). The digestion was carried out under constant stirring at 37° C. for 5 min. The supernatant was collected with FBS (Gibco) after each digestion period. After digestion, the collected supernatant was centrifuged at 1000 g for 10 min at room temperature, and then cell pellets were resuspended in DMEM (Gibco) supplemented with 10% FBS and with 100 uM 5-bromo-2′-deoxyuridine (Sigma). The resuspended cells were passed through a cell strainer ([…], BD Falcon) and seeded onto 100-mm plastic dishes for 2 h at 37° C. in a 5% CO2 to remove fibroblasts, the supernatant was then collected and plated onto 1% gelatin (Sigma)-coated dishes. 24 h after the seeding, the medium was changed to DMEM (Gibco) containing 2% FBS (Gibco), 1% insulin-transferrin-selenium (ITS; Gibco), 1% Penicillin-Streptomycin (Gibco). After 24 hours of low serum culture, remove the medium with DMEM (Gibco) containing 6% FBS (Gibco), 1% insulin-transferrin-selenium (ITS; Gibco), 1% Penicillin-Streptomycin (Gibco), different concentrations of compounds (the compounds were pre-diluted in the medium and the drug concentration was 10 uM, 3 uM, 1 uM, fully mixed). After 36 h add Edu substrate (Invitrogen) according to the manufacturer's guidelines, and then after 12 h cell can be used.
2.1. Immobilization: Remove the medium and fix the cells with […] in 200 ul (whichever is covered) for 15 min and wash the cells twice with 500 ul of PBS for 5 min each time.
2.2. Broken membrane: Add 200 ul of 0.3% Triton-X 100 (diluted in PBS) to each well, incubate for 10-15 min at room temperature (the time should not be too long), and wash the cells twice with 500 ul of PBS for 5 min each time.
2.3. Blocking: Add 200 ul of 10% normal goat serum (diluted with 0.1% PBST) to each well, incubate for 1 h at room temperature, and wash twice with 500 ul of 0.1% PBST for 5 min each time.
2.4. Primary antibody: dilute the primary antibody (abcam, ab8295) to blocking solution at a ratio of 1:200, add 100 ul per well, incubate for 1 h at room temperature (may be slightly longer than 2-3 h), wash the cells twice with 500 ul 0.1% PBST for 5 min each time.
2.5. Secondary antibody: Dilute the fluorescently labeled secondary antibody (abcam, ab150117) into blocking solution at a ratio of 1:200, add 100 ul per well, incubate for 1 h at room temperature (the time should not be too long), wash the cells twice with 0.1% PBST for 5 min each time, pay attention to the whole process. Protected from light.
2.6. Edu staining (Invitrogen C10338)
2.6.1 Prepare Click-iT® reaction cocktail according to Table 3. It was important to add the ingredients in the order listed in the table; otherwise, the reaction would not proceed optimally. Use the Click-iT® reaction cocktail within 15 minutes of preparation.
2.6.2 Add 0.1 mL of Click-iT® reaction cocktail to each well containing a coverslip. Rock the plate briefly to ensure that the reaction cocktail is distributed evenly over the coverslip.
2.6.3 Incubate the plate for 30 minutes at room temperature, protected from light.
2.6.4 Remove the reaction cocktail, then wash the cells twice with 0.1% PBST for 5 min each time.
2.7. DAPI staining: DAPI stain was diluted to PBS at a ratio of 1:1000, 100 ul per well, incubated for 30 min at room temperature, and the cells were washed twice with PBS for 5 min each.
We used Molecular Devices' Image Xpress Micro Confocal for high-throughput photo and data analysis.

Among the data in US12594261B2, “Use of heterocyclic derivatives with cardiomyocyte proliferation activity for treatment of heart diseases” (SHANGHAI EAST HOSPITAL (EAST HOSPITAL, TONGJI UNIVERSITY …, priority 2019, dated 2026) are activation values, retold here.

A value given as a limit tells only on which side of the number the result lay.

`O=C1NC(Nc2ccccc2)=N/C1=C\c1cc2c(cc1Cl)OCO2` [TJU-B011, (4Z)-4-[(6-chloro-2H-1,3-benzodioxol-5-yl)methylidene]-2-(phenylamino)-4,5-dihydro-1H-imidazol-5-one]: the activation at 1 µM was in the range of 10 to 50%, the activation at 3 µM lay in the range of 10 to 50% and the activation at 10 µM is > 50%.

`O=C1NC(Nc2ccccn2)=N/C1=C\c1ccc2c(c1)OCO2` [TJU-B097, (4Z)-4-[(2H-1,3-benzodioxol-5-yl)methylidene]-2-[(pyridin-2-yl)amino]-4,5-dihydro-1H-imidazol-5-one]: the activation at 1 µM was < 10%, the activation at 3 µM was < 10% and the activation at 10 µM was < 10%.

For the compound `O=C1NC(c2ccccc2)=N/C1=C\c1ccc2c(c1)OC(F)(F)O2` [TJU-B063, (4Z)-4-[(2,2-difluoro-2H-1,3-benzodioxol-5-yl)methylidene]-2-phenyl-4,5-dihydro-1H-imidazol-5-one], the activation at 1 µM was < 10%, the activation at 3 µM was > 50% and the activation at 10 µM was < 10%.

As for `O=C1NC(NC2CCCCC2)=N/C1=C\c1ccc2c(c1)OCO2` [TJU-B253, (4Z)-4-[(2H-1,3-benzodioxol-5-yl)methylidene]-2-(cyclohexylamino)-4,5-dihydro-1H-imidazol-5-one], the activation at 1 µM was < 10%, the activation at 3 µM was < 10% and the activation at 10 µM was < 10%.

In turn, `CN1C(=O)/C(=C/c2ccc3c(c2)OCO3)N=C1NCC1CC1` [TJU-B052, (4Z)-4-[(2H-1,3-benzodioxol-5-yl)methylidene]-2-[(cyclopropylmethyl)amino]-1-methyl-4,5-dihydro-1H-imidazol-5-one] had an activation at 1 µM of 10 to 50%, an activation at 3 µM of 10 to 50% and an activation at 10 µM of 10 to 50%.

In the case of `O=C1NC(Nc2cccnc2)=N/C1=C\c1ccc2c(c1)OCO2` [TJU-B031, (4Z)-4-[(2H-1,3-benzodioxol-5-yl)methylidene]-2-[(pyridin-3-yl)amino]-4,5-dihydro-1H-imidazol-5-one], the activation at 1 µM is < 10%, the activation at 3 µM was < 10% and the activation at 10 µM lay within 10 to 50%.

As for `C/C(=C1/N=C(Nc2ccccc2)NC1=O)c1ccc2c(c1)OCO2` [TJU-B013, (4Z)-4-[1-(2H-1,3-benzodioxol-5-yl)ethylidene]-2-(phenylamino)-4,5-dihydro-1H-imidazol-5-one], the activation at 1 µM is < 10%, the activation at 3 µM lay within 10 to 50% and the activation at 10 µM was > 50%.

Turning to `NC1=N/C(=C\c2cc3c(cc2Cl)OCO3)C(=O)N1` [TJU-B064, (4Z)-2-amino-4-[(6-chloro-2H-1,3-benzodioxol-5-yl)methylidene]-4,5-dihydro-1H-imidazol-5-one], the activation at 1 µM was < 10%, the activation at 3 µM is < 10% and the activation at 10 µM is < 10%.

As to `O=C1NC(NCCN2CCOCC2)=N/C1=C\c1ccc2c(c1)OCO2` [TJU-B004, (4Z)-4-[(2H-1,3-benzodioxol-5-yl)methylidene]-2-{[2-(morpholin-4-yl)ethyl]amino}-4,5-dihydro-1H-imidazol-5-one], the activation at 1 µM is < 10%, the activation at 3 µM was in the range of 10 to 50% and the activation at 10 µM was > 50%.

On to `COc1ccc(/C=C2\N=C(Nc3ccccc3)NC2=O)cc1OC` [TJU-B085, (4Z)-4-[(3,4-dimethoxyphenyl)methylidene]-2-(phenylamino)-4,5-dihydro-1H-imidazol-5-one], for which the activation at 1 µM was < 10%, the activation at 3 µM is < 10% and the activation at 10 µM was < 10%.

As for `NC1=N/C(=C\c2ccc3c(c2)OC(F)(F)O3)C(=O)N1` [TJU-B049, (4Z)-2-amino-4-[(2,2-difluoro-2H-1,3-benzodioxol-5-yl)methylidene]-4,5-dihydro-1H-imidazol-5-one], the activation at 1 µM lay within 10 to 50%, the activation at 3 µM was < 10% and the activation at 10 µM fell in the range of 10 to 50%.

Take `NC1=N/C(=C\c2ccc3c(c2)OCO3)C(=O)N1` [TJU-B034, (4Z)-2-amino-4-[(2H-1,3-benzodioxol-5-yl)methylidene]-4,5-dihydro-1H-imidazol-5-one]: the activation at 1 µM was < 10%, the activation at 3 µM is < 10% and the activation at 10 µM was 10 to 50%.

As to `CN1C(=O)/C(=C/c2ccccc2F)N=C1N` [TJU-B067, (4Z)-2-amino-4-[(2-fluorophenyl)methylidene]-1-methyl-4,5-dihydro-1H-imidazol-5-one], the activation at 1 µM is < 10%, the activation at 3 µM is < 10% and the activation at 10 µM is < 10%.

For the compound `N#Cc1ccc(NC2=N/C(=C\c3ccc4c(c3)OCO4)C(=O)N2)cc1` [TJU-B058, 4-{[(4Z)-4-[(2H-1,3-benzodioxol-5-yl)methylidene]-5-oxo-4,5-dihydro-1H-imidazol-2-yl]amino} benzonitrile], the activation at 1 µM was 10 to 50%, the activation at 3 µM was < 10% and the activation at 10 µM was < 10%.

As for `CC(C)NC1=N/C(=C\c2ccc3c(c2)OCO3)C(=O)N1C` [TJU-B016, (4Z)-4-[(2H-1,3-benzodioxol-5-yl)methylidene]-1-methyl-2-[(propan-2-yl)amino]-4,5-dihydro-1H-imidazol-5-one], the activation at 1 µM is < 10%, the activation at 3 µM was in the range of 10 to 50% and the activation at 10 µM is > 50%.

As to `O=C1NC(Nc2ccccc2)=N/C1=C\c1ccc2c(c1)OC(F)(F)O2` [TJU-B028, (4Z)-4-[(2,2-difluoro-2H-1,3-benzodioxol-5-yl)methylidene]-2-(phenylamino)-4,5-dihydro-1H-imidazol-5-one], the activation at 1 µM is < 10%, the activation at 3 µM is < 10% and the activation at 10 µM was 10 to 50%.

Regarding `O=C1NC(Nc2ccc3c(c2)OCO3)=N/C1=C\c1ccc2c(c1)OCO2` [TJU-B027, (4Z)-2-[(2H-1,3-benzodioxol-5-yl)amino]-4-[(2H-1,3-benzodioxol-5-yl)methylidene]-4,5-dihydro-1H-imidazol-5-one], the activation at 1 µM is < 10%, the activation at 3 µM was < 10% and the activation at 10 µM is 10 to 50%.

As for `COc1cccc(/C=C2\N=C(N)N(C)C2=O)c1` [TJU-B036, (4Z)-2-amino-4-[(3-methoxyphenyl)methylidene]-1-methyl-4,5-dihydro-1H-imidazol-5-one], the activation at 1 µM was in the range of 10 to 50%, the activation at 3 µM is < 10% and the activation at 10 µM lay within 10 to 50%.

`Nc1ccc(NC2=N/C(=C\c3ccc4c(c3)OCO4)C(=O)N2)cc1` [TJU-B021, (4Z)-2-[(4-aminophenyl)amino]-4-[(2H-1,3-benzodioxol-5-yl)methylidene]-4,5-dihydro-1H-imidazol-5-one]: the activation at 1 µM is < 10%, the activation at 3 µM was < 10% and the activation at 10 µM is > 50%.

`O=C1NC(NCCN2CCOCC2)=N/C1=C\c1ccc2c(c1)OC(F)(F)O2` [TJU-B066, (4Z)-4-[(2,2-difluoro-2H-1,3-benzodioxol-5-yl)methylidene]-2-{[2-(morpholin-4-yl)ethyl]amino}-4,5-dihydro-1H-imidazol-5-one]: the activation at 1 µM lay in the range of 10 to 50%, the activation at 3 µM is < 10% and the activation at 10 µM was < 10%.

Take `CCNC1=N/C(=C\c2ccc3c(c2)OCO3)C(=O)N1` [TJU-B040, (4Z)-4-[(2H-1,3-benzodioxol-5-yl)methylidene]-2-(ethylamino)-4,5-dihydro-1H-imidazol-5-one]: the activation at 1 µM lay within 10 to 50%, the activation at 3 µM is 10 to 50% and the activation at 10 µM was in the range of 10 to 50%.
